According to ChEMBL document CHEMBL4396896, “N-Aminoacyl and N-hydroxyacyl derivatives of diosgenyl 2-amino-2-deoxy-β-d-glucopyranoside: Synthesis, antimicrobial and hemolytic activities” (Bioorg Med Chem, 2019):
Values after ≈ are worked out from the molar mass of the structure shown.

Key:
[1] = system: Bacillus subtilis; experiment: Antibacterial activity against Bacillus subtilis ATCC 6633 incubated in MHB II under aerobic condition for 18 hrs using initial inoculum of 5 x 10^5 CFU/ml by serial dilution method; assay type: functional; settings: ATCC 6633, 18 h
[2] = system: Staphylococcus aureus; experiment: Antibacterial activity against Staphylococcus aureus ATCC 25923 incubated in MHB II under aerobic condition for 18 hrs using initial inoculum of 5 x 10^5 CFU/ml by serial dilution method; assay type: functional; settings: ATCC 25923, 18 h
[3] = Haemolytic activity in human erythrocytes assessed as haemolytic index by measuring hemoglobin release at 64 mg/L incubated for 1 hr by microplate spectrophotometry; assay type: ADME, cell-based, Erythrocyte; settings: read-out: HI
[4] = system: Staphylococcus epidermidis; experiment: Antibacterial activity against Staphylococcus epidermidis PCM 2118 incubated in MHB II under aerobic condition for 18 hrs using initial inoculum of 5 x 10^5 CFU/ml by serial dilution method; assay type: functional; settings: PCM 2118, 18 h
[5] = Haemolytic activity in human erythrocytes assessed as haemolytic index by measuring hemoglobin release at 32 mg/L incubated for 1 hr by microplate spectrophotometry; assay type: ADME, cell-based, Erythrocyte; settings: read-out: HI
[6] = system: Klebsiella pneumoniae; experiment: Antibacterial activity against Klebsiella pneumoniae ATCC 700603 incubated in MHB II under aerobic condition for 18 hrs using initial inoculum of 5 x 10^5 CFU/ml by serial dilution method; assay type: functional; settings: ATCC 700603, 18 h
[7] = system: Proteus mirabilis; experiment: Antibacterial activity against Proteus mirabilis PCM 543 incubated in MHB II under aerobic condition for 18 hrs using initial inoculum of 5 x 10^5 CFU/ml by serial dilution method; assay type: functional; settings: PCM 543, 18 h
[8] = system: Enterococcus faecalis; experiment: Antibacterial activity against Enterococcus faecalis ATCC 29212 incubated in MHB II under aerobic condition for 18 hrs using initial inoculum of 5 x 10^5 CFU/ml by serial dilution method; assay type: functional; settings: ATCC 29212, 18 h
[9] = Haemolytic activity in human erythrocytes assessed as haemolytic index by measuring hemoglobin release at 128 mg/L incubated for 1 hr by microplate spectrophotometry; assay type: ADME, cell-based, Erythrocyte; settings: read-out: HI
[10] = system: Escherichia coli; experiment: Antibacterial activity against Escherichia coli ATCC 25922 incubated in MHB II under aerobic condition for 18 hrs using initial inoculum of 5 x 10^5 CFU/ml by serial dilution method; assay type: functional; settings: ATCC 25922, 18 h
[11] = system: Pseudomonas aeruginosa; experiment: Antibacterial activity against Pseudomonas aeruginosa ATCC 9027 incubated in MHB II under aerobic condition for 18 hrs using initial inoculum of 5 x 10^5 CFU/ml by serial dilution method; assay type: functional; settings: ATCC 9027, 18 h
[12] = system: Candida albicans; experiment: Antifungal activity against Candida albicans ATCC 10231 incubated in sabouraud liquid medium under aerobic condition for 48 hrs using initial inoculum of 10^3 CFU/ml by serial dilution method; assay type: functional; settings: ATCC 10231, 48 h
[13] = system: Erythrocyte; experiment: Haemolytic activity in human erythrocytes assessed as hemoglobin release at 8 to 64 mg/L incubated for 1 hr by microplate spectrophotometry; assay type: ADME, cell-based
[14] = system: Yarrowia lipolytica; experiment: Antifungal activity against Candida lipolytica PCM 2680 incubated in sabouraud liquid medium under aerobic condition for 48 hrs using initial inoculum of 10^3 CFU/ml by serial dilution method; assay type: functional; settings: PCM 2680, 48 h
[15] = system: Candida albicans; experiment: […] activity against Candida albicans ATCC 10231 by antimicrobial susceptibility based testing method; assay type: functional
[16] = system: Enterococcus faecalis; experiment: microbe, parasite or virus in culture; settings: ATCC 29212
Description: Antibacterial activity against Enterococcus faecalis ATCC 29212 by antimicrobial susceptibility based testing method

[17] = system: Erythrocyte; experiment: Haemolytic activity in human erythrocytes assessed as haemolytic index by measuring hemoglobin release at 0.5 to 128 mg/L incubated for 1 hr by microplate spectrophotometry relative to control; assay type: ADME, cell-based; settings: erythrocyte, 1 h

Structure (SMILES) | MIC [1] | MIC [2] | MIC [4] | MIC [6] | MIC [7] | MIC [8] | MIC [10] | MIC [11] | MIC [12] | MIC [14] | hemolysis at 1 h, 64 mg/L [3] | hemolysis at 1 h, 32 mg/L [5] | hemolysis at 1 h, 128 mg/L [9] | Activity [13] | MIC [15] | MIC [16] | Activity [17]
C[C@@H]1CC[C@@]2(OC1)O[C@H]1C[C@H]3[C@@H]4CC=C5C[C@@H](O[C@@H]6O[C@H](CO)[C@@H](O)[C@H](O)[C@H]6NC(=O)CN)CC[C@]5(C)[C@H]4CC[C@]3(C)[C@H]1[C@@H]2C | 64 µg/mL (≈ 101 µM) | 64 µg/mL (≈ 101 µM) | 64 µg/mL (≈ 101 µM) | > 128 µg/mL | > 128 µg/mL | 64 µg/mL (≈ 101 µM) | > 128 µg/mL | > 128 µg/mL | 64 µg/mL (≈ 101 µM) | 64 µg/mL (≈ 101 µM) |  |  | 16% | Toxic |  |  | 
C[C@@H]1[C@H](O)[C@@H](C)/C=C/C=C/C=C/C=C/C=C/C=C/C=C/[C@H](O[C@@H]2O[C@H](C)[C@@H](O)[C@H](N)[C@@H]2O)C[C@@H]2O[C@](O)(C[C@@H](O)C[C@@H](O)[C@H](O)CC[C@@H](O)C[C@@H](O)CC(=O)O[C@H]1C)C[C@H](O)[C@H]2C(=O)O [AMPHOTERICIN B] |  |  |  |  |  |  |  |  |  |  |  |  |  |  | 0.5 µg/mL (≈ 0.541 µM) |  | 
CN[C@H](CC(C)C)C(=O)N[C@H]1C(=O)N[C@@H](CC(N)=O)C(=O)N[C@H]2C(=O)N[C@H]3C(=O)N[C@H](C(=O)N[C@H](C(=O)O)c4cc(O)cc(O)c4-c4cc3ccc4O)[C@H](O)c3ccc(c(Cl)c3)Oc3cc2cc(c3O[C@@H]2O[C@H](CO)[C@@H](O)[C@H](O)[C@H]2O[C@H]2C[C@](C)(N)[C@H](O)[C@H](C)O2)Oc2ccc(cc2Cl)[C@H]1O [VANCOMYCIN] |  |  |  |  |  |  |  |  |  |  |  |  |  |  |  | 2 µg/mL (≈ 1.38 µM) | 
C[C@@H]1CC[C@@]2(OC1)O[C@H]1C[C@H]3[C@@H]4CC=C5C[C@@H](O[C@@H]6O[C@H](CO)[C@@H](O)[C@H](O)[C@H]6N)CC[C@]5(C)[C@H]4CC[C@]3(C)[C@H]1[C@@H]2C.Cl | 8 µg/mL | 16 µg/mL | 16 µg/mL |  |  | 16 µg/mL |  |  | 2 µg/mL | 1 µg/mL |  |  |  |  |  |  | Non-Toxic

More lines, main results first:

MIC [1] | MIC [2] | MIC [4] | MIC [6] | MIC [7] | MIC [8] | MIC [10] | MIC [11] | MIC [12] | MIC [14] | Structure (SMILES) | hemolysis at 1 h, 64 mg/L [3] | hemolysis at 1 h, 32 mg/L [5] | hemolysis at 1 h, 128 mg/L [9] | Activity [13] | MIC [15] | MIC [16] | Activity [17]
8 µg/mL (≈ 11.9 µM) | 4 µg/mL (≈ 5.94 µM) | 4 µg/mL (≈ 5.94 µM) | > 128 µg/mL | > 128 µg/mL | 4 µg/mL (≈ 5.94 µM) | > 128 µg/mL | > 128 µg/mL |  |  | C[C@@H]1CC[C@@]2(OC1)O[C@H]1C[C@H]3[C@@H]4CC=C5C[C@@H](O[C@@H]6O[C@H](CO)[C@@H](O)[C@H](O)[C@H]6NC(=O)[C@@H]6CCCN6)CC[C@]5(C)[C@H]4CC[C@]3(C)[C@H]1[C@@H]2C | 100% | 46% | 100% |  |  |  | 
64 µg/mL (≈ 89.1 µM) | 128 µg/mL (≈ 178 µM) | 128 µg/mL (≈ 178 µM) | > 128 µg/mL | > 128 µg/mL | > 128 µg/mL | > 128 µg/mL | > 128 µg/mL | 64 µg/mL (≈ 89.1 µM) | 32 µg/mL (≈ 44.6 µM) | C[C@@H]1CC[C@@]2(OC1)O[C@H]1C[C@H]3[C@@H]4CC=C5C[C@@H](O[C@@H]6O[C@H](CO)[C@@H](O)[C@H](O)[C@H]6NC(=O)[C@H](C)NC(=O)[C@H](C)N)CC[C@]5(C)[C@H]4CC[C@]3(C)[C@H]1[C@@H]2C | 57% |  | 74% |  |  |  | 
